One data set relates to patients. The settings on record: human, in vivo; cited from earlier work.
In another data set the test system is male CD1 mice. The experiment in a line: Pentylenetetrazol (PTZ) infusion seizure threshold. It counts as in vivo, mouse. The settings on record: 10 mg/kg. An excerpt: Administration of chemical convulsant agents such as Pentylenetetrazol (PTZ) are used to mimic behavioral aspects of human epilepsy. PTZ causes myoclonic jerking movements, clonic convulsions or forelimb/hindlimb tonic extension in rodents. The PTZ model is primarily used to evaluate anti-convulsant properties of antiepileptic drugs (AED's) by identifying compounds which raise seizure threshold but can also be used to identify pro-convulsant agents that lower seizure threshold. PTZ is a well-established model for acute and repetitive seizures, and is accepted for use for screening AED action. PTZ induces myoclonic and generalized tonic-clonic seizures.
Male CD1 mice (age 6-8 weeks, weight 30.0-42.9 g, source: Charles River UK) were used in this study. […] During this time-infusion, mice were individually assessed for the onset of myoclonic, forelimb tonus and hindlimb tonus seizures. The latencies (in seconds) from start of infusion to the appearance of first myoclonus, forelimb tonic and hind limb tonic extension were recorded. […] For animals reaching this cut off, the dose of PTZ in mg/kg infused over the 120 s was calculated as the threshold dose. […]
Data was analysed using one way ANOVA in which the dose of PTZ required to induce seizure was compared between each treatment groups and vehicle. […]

Data set [1] concerns children aged 7 to 14 years old with ADHD. The settings on record: 6-week trial, children aged 7 to 14 years with ADHD; cited from earlier work.

Structures are written as SMILES.

With `CNCC[C@@H](Oc1ccccc1C)c1ccccc1` [Atomoxetine, atomoxetine], in the data set with patients, the “Decreased appetite, % of patients” value is reported as 15-20%.
Regarding `CN1C(=O)CN=C(c2ccccc2)c2cc(Cl)ccc21` [Diazepam, diazepam], the “Dose of PTZ required to induce myoclonic, forelimb and hindlimb tonic seizures” value with male CD1 mice was “significantly increased”.
As for `NC(=O)C[S+]([O-])C(c1ccccc1)c1ccccc1` (stereo not drawn) [modafinil], the “Response rate compared to placebo” value in data set [1] is on record as 78%.
